SMILES strings stand for the structures. The source made the active and inactive calls. The calls are words filed in the database; no cut-off is given here.

The first data set concerns Nucleic Acid. In words: Binding affinity to AMP in citric acid buffer at pH 5 by fluorescence titration assay relative to control. The format is nucleic-acid assay.
Conditions: not given
Regarding `Cc1c2cc(NC(=O)NCCCCCCCCCNC(=O)Nc3ccc4c(c3)c(C)[n+](C)c3ccccc43)ccc2c2ccccc2[n+]1C.O=S(=O)([O-])O.O=S(=O)([O-])O`, the RFU is -38.5.

A further data set concerns Calf thymus DNA. Kind of data set: Binding affinity to calf thymus DNA assessed as change in melting temperature at compound to DNA molar ratio of 0.3 at pH 7 by thermal denaturation assay. The following applies: Bos taurus. The format is nucleic-acid assay.
`Cc1c2cc(NC(=O)NCCCCCCCCCNC(=O)Nc3ccc4c(c3)c(C)[n+](C)c3ccccc43)ccc2c2ccccc2[n+]1C.O=S(=O)([O-])O.O=S(=O)([O-])O`: the ΔTm (usually the shift of the melting midpoint relative to a reference) turned out to be 5.8 °C.

A further data set deals with Calf thymus DNA. In words: Binding affinity to calf thymus DNA in sodium cacodylate buffer at pH 7 by fluorescence titration assay. In kind it is nucleic-acid assay. The settings on record: Bos taurus.
`Cc1c2cc(NC(=O)NCCCCCCCCCNC(=O)Nc3ccc4c(c3)c(C)[n+](C)c3ccccc43)ccc2c2ccccc2[n+]1C.O=S(=O)([O-])O.O=S(=O)([O-])O` showed a log Ks of 5.9.

The test system of a further data set is Nucleic Acid. Kind of data set: Binding affinity to GMP in sodium cacodylate buffer at pH 7 by fluorescence titration assay relative to control. The format is nucleic-acid assay.
Conditions: not given
The compound `Cc1c2cc(NC(=O)NCCCCCCCCCNC(=O)Nc3ccc4c(c3)c(C)[n+](C)c3ccccc43)ccc2c2ccccc2[n+]1C.O=S(=O)([O-])O.O=S(=O)([O-])O` registered an RFU of -16.7.

For a further data set, the system named is Nucleic Acid. In words: Binding affinity to poly A-poly U RNA assessed as biphasic transitions of change in melting temperature at compound to DNA molar ratio of 0.2 at pH 5 by thermal denaturation assay. The format is nucleic-acid assay.
Conditions: not given
Take `Cc1c2cc(NC(=O)NCCCCCCCCCNC(=O)Nc3ccc4c(c3)c(C)[n+](C)c3ccccc43)ccc2c2ccccc2[n+]1C.O=S(=O)([O-])O.O=S(=O)([O-])O`: the ΔTm was -1.3 °C.

The test system of the next data set is Calf thymus DNA. In words: Binding affinity to calf thymus DNA assessed as change in melting temperature at compound to DNA molar ratio of 0.2 at pH 7 by thermal denaturation assay. In kind it is nucleic-acid assay. The settings on record: Bos taurus.
In the case of `Cc1c2cc(NC(=O)NCCCCCCCCCNC(=O)Nc3ccc4c(c3)c(C)[n+](C)c3ccccc43)ccc2c2ccccc2[n+]1C.O=S(=O)([O-])O.O=S(=O)([O-])O`, the ΔTm worked out at 4.9 °C.

In another data set the test system is Caco-2. In words: Cytotoxicity against human Caco-2 cells at 0.1 to 100 uM after 72 hrs by MTT assay. In kind it is functional, cell-based.
Conditions: not given
`Cc1c2cc(NC(=O)NCCCCCCCCCNC(=O)Nc3ccc4c(c3)c(C)[n+](C)c3ccccc43)ccc2c2ccccc2[n+]1C.O=S(=O)([O-])O.O=S(=O)([O-])O`: the result was inactive.

The next data set deals with Nucleic Acid. In words: Binding affinity to poly dA-poly dT RNA in sodium cacodylate buffer at pH 7 by fluorescence titration assay. The format is nucleic-acid assay.
Conditions: not given
The compound `Cc1c2cc(NC(=O)NCCCCCCCCCNC(=O)Nc3ccc4c(c3)c(C)[n+](C)c3ccccc43)ccc2c2ccccc2[n+]1C.O=S(=O)([O-])O.O=S(=O)([O-])O` registered a log Ks of 5.6.

The subject of another data set is Nucleic Acid. Kind of data set: Binding affinity to poly dA-poly dT RNA in sodium cacodylate buffer at pH 7 by UV-v titration assay. The format is nucleic-acid assay.
Conditions: not given
`Cc1c2cc(NC(=O)NCCCCCCCCCNC(=O)Nc3ccc4c(c3)c(C)[n+](C)c3ccccc43)ccc2c2ccccc2[n+]1C.O=S(=O)([O-])O.O=S(=O)([O-])O`: the log Ks was 5.3.

Another data set has as its system Nucleic Acid. Kind of data set: Binding affinity to […] assessed as change in melting temperature at compound to DNA molar ratio of 0.2 at pH 7 by thermal denaturation assay. The format is nucleic-acid assay.
Conditions: not given
In the case of `Cc1c2cc(NC(=O)NCCCCCCCCCNC(=O)Nc3ccc4c(c3)c(C)[n+](C)c3ccccc43)ccc2c2ccccc2[n+]1C.O=S(=O)([O-])O.O=S(=O)([O-])O`, the ΔTm was determined as 4.2 °C.

The next data set relates to MIA PaCa-2. Kind of data set: Cytotoxicity against human MIAPaCa2 cells at 100 uM after 72 hrs by MTT assay. In kind it is functional. The following applies: MIA PaCa-2, 72 h.
For `Cc1c2cc(NC(=O)NCCCCCCCCCNC(=O)Nc3ccc4c(c3)c(C)[n+](C)c3ccccc43)ccc2c2ccccc2[n+]1C.O=S(=O)([O-])O.O=S(=O)([O-])O`, 100 µM produced 26.8% inhibition.

Another data set deals with MIA PaCa-2. In words: Cytotoxicity against human MIAPaCa2 cells at 0.1 to 100 uM after 72 hrs by MTT assay. The format is functional, cell-based.
Conditions: not given
In general terms: Formazan colour is commonly taken as a measure of viable cells.
Regarding `Cc1c2cc(NC(=O)NCCCCCCCCCNC(=O)Nc3ccc4c(c3)c(C)[n+](C)c3ccccc43)ccc2c2ccccc2[n+]1C.O=S(=O)([O-])O.O=S(=O)([O-])O`, the outcome was inactive.

The next data set deals with Nucleic Acid. Kind of data set: Binding affinity to poly dA-poly dT RNA in citric acid buffer at pH 5 by fluorescence titration assay relative to control. The format is nucleic-acid assay.
Conditions: not given
Compound `Cc1c2cc(NC(=O)NCCCCCCCCCNC(=O)Nc3ccc4c(c3)c(C)[n+](C)c3ccccc43)ccc2c2ccccc2[n+]1C.O=S(=O)([O-])O.O=S(=O)([O-])O` yielded an RFU of 2.3.

The subject of another data set is Nucleic Acid. Kind of data set: Binding affinity to […] assessed as melting temperature at compound to DNA molar ratio of 0.3 at pH 7 by thermal denaturation assay.
Conditions: not given
The format is nucleic-acid assay.
With `Cc1c2cc(NC(=O)NCCCCCCCCCNC(=O)Nc3ccc4c(c3)c(C)[n+](C)c3ccccc43)ccc2c2ccccc2[n+]1C.O=S(=O)([O-])O.O=S(=O)([O-])O`, the Tm (as a rule, the temperature at which the thermal transition is half complete) was 70.4 °C.

A further data set deals with Nucleic Acid. In words: Binding affinity to UMP in sodium cacodylate buffer at pH 7 by fluorescence titration assay relative to control.
Conditions: not given
The format is nucleic-acid assay.
On to `Cc1c2cc(NC(=O)NCCCCCCCCCNC(=O)Nc3ccc4c(c3)c(C)[n+](C)c3ccccc43)ccc2c2ccccc2[n+]1C.O=S(=O)([O-])O.O=S(=O)([O-])O`, for which the RFU was 1.02.

Another data set concerns HeLa. Kind of data set: Cytotoxicity against human HeLa cells at 0.1 to 100 uM after 72 hrs by MTT assay. The format is functional, cell-based.
Conditions: not given
On to `Cc1c2cc(NC(=O)NCCCCCCCCCNC(=O)Nc3ccc4c(c3)c(C)[n+](C)c3ccccc43)ccc2c2ccccc2[n+]1C.O=S(=O)([O-])O.O=S(=O)([O-])O`, for which the outcome was inactive.

Another data set deals with Nucleic Acid. In words: Binding affinity to […] assessed as melting temperature at compound to DNA molar ratio of 0.2 at pH 7 by thermal denaturation assay.
Conditions: not given
In kind it is nucleic-acid assay.
On to `Cc1c2cc(NC(=O)NCCCCCCCCCNC(=O)Nc3ccc4c(c3)c(C)[n+](C)c3ccccc43)ccc2c2ccccc2[n+]1C.O=S(=O)([O-])O.O=S(=O)([O-])O`, for which the Tm turned out to be 69.1 °C.

For the next data set, the system named is Nucleic Acid. Kind of data set: Binding affinity to GMP in citric acid buffer at pH 5 by fluorescence titration assay relative to control. In kind it is nucleic-acid assay.
Conditions: not given
Compound `Cc1c2cc(NC(=O)NCCCCCCCCCNC(=O)Nc3ccc4c(c3)c(C)[n+](C)c3ccccc43)ccc2c2ccccc2[n+]1C.O=S(=O)([O-])O.O=S(=O)([O-])O` had an RFU of -7.2.

Another data set relates to Nucleic Acid. Kind of data set: Binding affinity to poly A-poly U RNA in citric acid buffer at pH 5 by fluorescence titration assay relative to control. In kind it is nucleic-acid assay.
Conditions: not given
`Cc1c2cc(NC(=O)NCCCCCCCCCNC(=O)Nc3ccc4c(c3)c(C)[n+](C)c3ccccc43)ccc2c2ccccc2[n+]1C.O=S(=O)([O-])O.O=S(=O)([O-])O` had an RFU of 8.1.

The subject of another data set is Calf thymus DNA. In words: Binding affinity to calf thymus DNA assessed as melting temperature at compound to DNA molar ratio of 0.3 at pH 7 by thermal denaturation assay. The format is nucleic-acid assay. The settings on record: Bos taurus.
For `Cc1c2cc(NC(=O)NCCCCCCCCCNC(=O)Nc3ccc4c(c3)c(C)[n+](C)c3ccccc43)ccc2c2ccccc2[n+]1C.O=S(=O)([O-])O.O=S(=O)([O-])O`, the Tm is 85.1 °C.

System in a further data set: not listed separately
Kind of data set: Solubility of the compound in water. In kind it is physicochemical. The settings on record: buffer.
For `Cc1c2cc(NC(=O)NCCCCCCCCCNC(=O)Nc3ccc4c(c3)c(C)[n+](C)c3ccccc43)ccc2c2ccccc2[n+]1C.O=S(=O)([O-])O.O=S(=O)([O-])O`, the solubility (usually the concentration that dissolves in the medium under given conditions) turned out to be 1060 µM.

The next data set deals with Calf thymus DNA. Kind of data set: Binding affinity to calf thymus DNA assessed as change in melting temperature at compound to DNA molar ratio of 0.3 at pH 5 by thermal denaturation assay. In kind it is nucleic-acid assay. The following applies: Bos taurus.
As to `Cc1c2cc(NC(=O)NCCCCCCCCCNC(=O)Nc3ccc4c(c3)c(C)[n+](C)c3ccccc43)ccc2c2ccccc2[n+]1C.O=S(=O)([O-])O.O=S(=O)([O-])O`, the ΔTm was 13.4 °C.

Another data set relates to Nucleic Acid. In words: Binding affinity to poly A-poly U RNA assessed as melting temperature at compound to DNA molar ratio of 0.3 at pH 7 by thermal denaturation assay. In kind it is nucleic-acid assay.
Conditions: not given
Regarding `Cc1c2cc(NC(=O)NCCCCCCCCCNC(=O)Nc3ccc4c(c3)c(C)[n+](C)c3ccccc43)ccc2c2ccccc2[n+]1C.O=S(=O)([O-])O.O=S(=O)([O-])O`, the Tm is 53.6 °C.

Source of the values: ChEMBL document CHEMBL1208667, “Permanent positive charge strongly influences DNA/RNA binding and antiproliferative activity of urea-phenanthridinium conjugates” (Eur J Med Chem, 2010).
